Reference: ChEMBL document CHEMBL5154678, “Lysine Stapling Screening Provides Stable and Low Toxic Cationic Antimicrobial Peptides Combating Multidrug-Resistant Bacteria In Vitro and In Vivo” (J Med Chem, 2022)
Converted amounts (≈) assume the structure as drawn. Starred links: 1 amine or outer side, 2 acyl side, 3 side chain; linkers in the order of their positions; H or OH if unused. Positions of bridges follow the written chain, without caps; N, C: chain ends. Non-standard residues stand in square brackets, D forms with d. Residues, ends and D or L forms follow the SMILES beside them. X1 = O=C([C@H](CCCCNCC=[*:3])N[*:1])[*:2]

Key:
[1] = system: Staphylococcus aureus; test: Antibacterial activity against methicillin-resistant Staphylococcus aureus assessed as inhibition of bacterial growth incubated for 16 hrs by broth microdilution method; type: functional
[2] = system: Escherichia coli; test: Antibacterial activity against Escherichia coli BNCC 133264 assessed as inhibition of bacterial growth incubated for 16 hrs by broth microdilution method; type: functional
[3] = system: Listeria monocytogenes; test: Antibacterial activity against Listeria monocytogenes assessed as inhibition of bacterial growth incubated for 16 hrs by broth microdilution method; type: functional
[4] = system: Staphylococcus aureus; test: Antibacterial activity against Staphylococcus aureus BNCC 186335 assessed as inhibition of bacterial growth incubated for 16 hrs by broth microdilution method; type: functional
[5] = system: Pseudomonas aeruginosa; test: Antibacterial activity against Pseudomonas aeruginosa BNCC 125486 assessed as inhibition of bacterial growth incubated for 16 hrs by broth microdilution method; type: functional
[6] = system: Escherichia coli; test: Antibacterial activity against cephalosporin-resistant Escherichia coli BNCC 133264 assessed as inhibition of bacterial growth incubated for 16 hrs by broth microdilution method; type: functional
[7] = system: HEK-293T; test: Cytotoxicity against human HEK293T cells assessed as cell survival rate at 8 to 128 Ug/ml incubated for 24 hrs by MTT assay relative to control; type: toxicity, cell-based; conditions: dose 8-128 µg/ml
[8] = system: Erythrocyte; test: Hemolytic activity against human RBC assessed as concentration required to cause 10% hemolysis; type: toxicity, cell-based

Structure (SMILES)	MIC [1] [µg/mL]	MIC [2] [µg/mL]	MIC [3] [µg/mL]	MIC [4] [µg/mL]	MIC [5] [µg/mL]	MIC [6] [µg/mL]	Activity [7]	MHC [8] [µg/mL]
CCN1CCN(C(=O)N[C@@H](C(=O)N[C@@H]2C(=O)N3C(C(=O)[O-])=C(CSc4nnnn4C)CS[C@H]23)c2ccc(O)cc2)C(=O)C1=O.[Na+] [CEFOPERAZONE SODIUM]	> 128	0.125	8	0.5	4	> 128	–	–
CC(C)C[C@H](NC(=O)[C@H](C)NC(=O)[C@H](CCCCN)NC(=O)[C@H](C)NC(=O)[C@H](C)NC(=O)CNC(=O)[C@@H]1CCCCNC/C=C/CNCCCC[C@H](NC(=O)[C@H](Cc2ccccc2)NC(=O)CN)C(=O)N[C@@H](CC(=O)O)C(=O)N[C@@H](CC(C)C)C(=O)N[C@@H](CC(C)C)C(=O)N1)C(=O)N[C@H](C(=O)N[C@@H](CCCCN)C(=O)N[C@H](C(=O)N[C@H](C(=O)N[C@@H](CC(C)C)C(=O)N[C@@H](Cc1ccccc1)C(N)=O)C(C)C)[C@@H](C)O)C(C)C (H-GF[X1]DLL[X1]GAAKALVKTVLF-NH2; staple (E) 3-7)	16 (≈ 7.73 µM)	16 (≈ 7.73 µM)	16 (≈ 7.73 µM)	4 (≈ 1.93 µM)	128 (≈ 61.8 µM)	32 (≈ 15.5 µM)	Toxic	32
CC[C@H](C)[C@H](NC(=O)[C@H](CCCCN)NC(=O)[C@H](CC(N)=O)NC(=O)[C@H](CC(C)C)NC(=O)[C@@H](NC(=O)[C@H](CCCCN)NC(=O)[C@@H]1CCCN1)[C@@H](C)CC)C(=O)N[C@@H](CC(C)C)C(=O)NCC(=O)N[C@@H](CCCCN)C(=O)N[C@H](C(=O)N[C@@H](CC(C)C)C(=O)N[C@@H](CCCNC(=N)N)C(=O)N[C@@H](CC(C)C)C(=O)N[C@@H](C)C(=O)N[C@@H](C)C(=O)N[C@@H](C)C(=O)N[C@@H](Cc1ccccc1)C(=O)N[C@@H](CCCCN)C(N)=O)[C@@H](C)CC (H-PKILNKILGKILRLAAAFK-NH2)	4 (≈ 1.9 µM)	4 (≈ 1.9 µM)	4 (≈ 1.9 µM)	2 (≈ 0.949 µM)	4 (≈ 1.9 µM)	4 (≈ 1.9 µM)	–	16
CC[C@H](C)[C@H](NC(=O)[C@H](CCCCN)NC(=O)[C@@H]1CCCN1C(=O)[C@@H](NC(=O)[C@H](CC(C)C)NC(=O)[C@H](CCCCN)NC(=O)[C@H](CC(C)C)NC(=O)[C@@H](NC(=O)[C@H](CO)NC(=O)CNC(=O)[C@H](Cc1ccccc1)NC(=O)[C@@H](N)Cc1ccccc1)C(C)C)[C@@H](C)CC)C(=O)N[C@@H](CC(C)C)C(N)=O (H-FFGSVLKLIPKIL-NH2)	2 (≈ 1.36 µM)	64 (≈ 43.4 µM)	2 (≈ 1.36 µM)	2 (≈ 1.36 µM)	> 128	32 (≈ 21.7 µM)	–	64
CC(C)C[C@H](NC(=O)[C@H](C)NC(=O)[C@H](CCCCN)NC(=O)[C@H](C)NC(=O)[C@H](C)NC(=O)CNC(=O)[C@H](CCCCN)NC(=O)[C@H](CC(C)C)NC(=O)[C@H](CC(C)C)NC(=O)[C@H](CC(=O)O)NC(=O)[C@H](CCCCN)NC(=O)[C@H](Cc1ccccc1)NC(=O)CN)C(=O)N[C@H](C(=O)N[C@@H](CCCCN)C(=O)N[C@H](C(=O)N[C@H](C(=O)N[C@@H](CC(C)C)C(=O)N[C@@H](Cc1ccccc1)C(N)=O)C(C)C)[C@@H](C)O)C(C)C [Ascaphin-8] (H-GFKDLLKGAAKALVKTVLF-NH2)	16 (≈ 7.93 µM)	4 (≈ 1.98 µM)	2 (≈ 0.991 µM)	2 (≈ 0.991 µM)	16 (≈ 7.93 µM)	32 (≈ 15.9 µM)	Toxic	32
CC[C@H](C)[C@H](NC(=O)[C@@H]1CCCCNC/C=C/CNCCCC[C@H](NC(=O)[C@H](CC(C)C)NC(=O)[C@@H](NC(=O)[C@H](CCCCN)NC(=O)CNC(=O)[C@H](Cc2ccccc2)NC(=O)[C@@H](N)Cc2ccccc2)C(C)C)C(=O)N[C@@H](CC(C)C)C(=O)N[C@@H]([C@@H](C)CC)C(=O)N[C@@H](CCCNC(=N)N)C(=O)N1)C(=O)N[C@@H](Cc1ccccc1)C(N)=O (H-FFGKVL[X1]LIR[X1]IF-NH2; staple (E) 7-11)	32 (≈ 19.3 µM)	128 (≈ 77.1 µM)	8 (≈ 4.82 µM)	16 (≈ 9.64 µM)	> 128	128 (≈ 77.1 µM)	Toxic	16
CC[C@H](C)[C@@H]1NC(=O)[C@@H](NC(=O)[C@H](CC(N)=O)NC(=O)[C@H](CC(C)C)NC(=O)[C@@H](NC(=O)[C@H](CCCCN)NC(=O)[C@@H]2CCCN2)[C@@H](C)CC)CCCCNC/C=C/CNCCCC[C@@H](C(=O)N[C@H](C(=O)N[C@@H](CC(C)C)C(=O)N[C@@H](CCCNC(=N)N)C(=O)N[C@@H](CC(C)C)C(=O)N[C@@H](C)C(=O)N[C@@H](C)C(=O)N[C@@H](C)C(=O)N[C@@H](Cc2ccccc2)C(=O)N[C@@H](CCCCN)C(N)=O)[C@@H](C)CC)NC(=O)CNC(=O)[C@H](CC(C)C)NC1=O (H-PKILN[X1]ILG[X1]ILRLAAAFK-NH2; staple (E) 6-10)	4 (≈ 1.85 µM)	4 (≈ 1.85 µM)	2 (≈ 0.926 µM)	2 (≈ 0.926 µM)	16 (≈ 7.41 µM)	8 (≈ 3.71 µM)	Non-Toxic	16
CN[C@H](CC(C)C)C(=O)N[C@H]1C(=O)N[C@@H](CC(N)=O)C(=O)N[C@H]2C(=O)N[C@H]3C(=O)N[C@H](C(=O)N[C@H](C(=O)O)c4cc(O)cc(O)c4-c4cc3ccc4O)[C@H](O)c3ccc(c(Cl)c3)Oc3cc2cc(c3O[C@@H]2O[C@H](CO)[C@@H](O)[C@H](O)[C@H]2O[C@H]2C[C@](C)(N)[C@H](O)[C@H](C)O2)Oc2ccc(cc2Cl)[C@H]1O [VANCOMYCIN]	–	> 128	–	–	> 128	> 128	–	–
CC[C@H](C)[C@H](NC(=O)[C@H](CCCCN)NC(=O)[C@H](CCCNC(=N)N)NC(=O)[C@@H](NC(=O)[C@H](CC(C)C)NC(=O)[C@H](CCCCN)NC(=O)[C@H](CC(C)C)NC(=O)[C@@H](NC(=O)[C@H](CCCCN)NC(=O)CNC(=O)[C@H](Cc1ccccc1)NC(=O)[C@@H](N)Cc1ccccc1)C(C)C)[C@@H](C)CC)C(=O)N[C@@H](Cc1ccccc1)C(N)=O (H-FFGKVLKLIRKIF-NH2)	64 (≈ 39.8 µM)	> 128	8 (≈ 4.97 µM)	64 (≈ 39.8 µM)	> 128	–	–	16
CC(C)C[C@@H]1NC(=O)[C@H](C)NC(=O)[C@@H](NC(=O)[C@H](C)NC(=O)[C@H](C)NC(=O)CNC(=O)[C@H](CCCCN)NC(=O)[C@H](CC(C)C)NC(=O)[C@H](CC(C)C)NC(=O)[C@H](CC(=O)O)NC(=O)[C@H](CCCCN)NC(=O)[C@H](Cc2ccccc2)NC(=O)CN)CCCCNC/C=C/CNCCCC[C@@H](C(=O)N[C@H](C(=O)N[C@H](C(=O)N[C@@H](CC(C)C)C(=O)N[C@@H](Cc2ccccc2)C(N)=O)C(C)C)[C@@H](C)O)NC(=O)[C@H](C(C)C)NC1=O (H-GFKDLLKGAA[X1]ALV[X1]TVLF-NH2; staple (E) 11-15)	8 (≈ 3.86 µM)	8 (≈ 3.86 µM)	4 (≈ 1.93 µM)	2 (≈ 0.966 µM)	128 (≈ 61.8 µM)	16 (≈ 7.73 µM)	Toxic	32
CC(C)C[C@H](NC(=O)[C@H](C)NC(=O)[C@@H]1CCCCNC/C=C/CNCCCC[C@H](NC(=O)[C@H](CC(C)C)NC(=O)[C@H](CC(C)C)NC(=O)[C@H](CC(=O)O)NC(=O)[C@H](CCCCN)NC(=O)[C@H](Cc2ccccc2)NC(=O)CN)C(=O)NCC(=O)N[C@@H](C)C(=O)N[C@@H](C)C(=O)N1)C(=O)N[C@H](C(=O)N[C@@H](CCCCN)C(=O)N[C@H](C(=O)N[C@H](C(=O)N[C@@H](CC(C)C)C(=O)N[C@@H](Cc1ccccc1)C(N)=O)C(C)C)[C@@H](C)O)C(C)C (H-GFKDLL[X1]GAA[X1]ALVKTVLF-NH2; staple (E) 7-11)	8 (≈ 3.86 µM)	16 (≈ 7.73 µM)	8 (≈ 3.86 µM)	2 (≈ 0.966 µM)	32 (≈ 15.5 µM)	32 (≈ 15.5 µM)	–	32
